Experimental data reported in ChEMBL document CHEMBL1159057, “Novel anilinophthalimide derivatives as potential probes for beta-amyloid plaque in the brain” (Bioorg Med Chem, 2010).
Blank lines part the entries; values can stand above or below the compound they belong to. Calls of active or inactive are those of the source. The calls are words filed in the database; no cut-off is given here.

Experiments:
[1] = Binding affinity to beta-amyloid plaques
[2] = target: T1, Amyloid-beta precursor protein (Homo sapiens, UniProt P05067); assay: Displacement of [125I-N-Methyl-4-(4-bromoanilino)phthalimide from beta-amyloid plaques isolated from Alzheimer's disease patient brain
T1 sequence (P05067 whole entry): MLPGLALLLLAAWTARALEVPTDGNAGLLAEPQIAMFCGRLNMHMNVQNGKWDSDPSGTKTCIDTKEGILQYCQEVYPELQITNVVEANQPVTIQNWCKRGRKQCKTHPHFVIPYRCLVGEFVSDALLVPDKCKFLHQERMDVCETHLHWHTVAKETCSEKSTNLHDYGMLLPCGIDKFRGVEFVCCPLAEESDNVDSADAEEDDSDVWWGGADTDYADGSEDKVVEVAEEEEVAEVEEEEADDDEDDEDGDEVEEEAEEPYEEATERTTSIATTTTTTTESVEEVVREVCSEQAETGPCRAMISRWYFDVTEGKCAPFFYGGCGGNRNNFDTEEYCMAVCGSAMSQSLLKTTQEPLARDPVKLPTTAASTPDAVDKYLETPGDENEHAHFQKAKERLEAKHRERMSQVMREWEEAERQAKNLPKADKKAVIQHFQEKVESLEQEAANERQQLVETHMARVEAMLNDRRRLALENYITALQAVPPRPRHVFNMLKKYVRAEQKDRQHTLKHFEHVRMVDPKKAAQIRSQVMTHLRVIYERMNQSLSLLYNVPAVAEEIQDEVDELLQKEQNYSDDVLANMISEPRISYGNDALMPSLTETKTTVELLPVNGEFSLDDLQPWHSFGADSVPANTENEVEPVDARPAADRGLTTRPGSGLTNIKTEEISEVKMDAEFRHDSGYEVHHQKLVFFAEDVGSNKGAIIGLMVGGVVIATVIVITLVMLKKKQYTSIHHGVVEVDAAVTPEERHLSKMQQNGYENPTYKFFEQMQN

[3] = target: T1, Amyloid-beta precursor protein; assay: Binding affinity to beta-amyloid plaques isolated from Alzheimer's disease patient brain at 50 uM by fluorescence micrography
Spleen [4] = assay: Biodistribution in Kunming mouse spleen at 2 uCi, iv after 30 mins; format: ADME, organism-based; details: in vivo, 0.5 h
Blood [5] = assay: Biodistribution in Kunming mouse blood at 2 uCi, iv after 2 mins; format: ADME, organism-based; details: in vivo
Lung [6] = assay: Biodistribution in Kunming mouse lung at 2 uCi, iv after 60 mins; format: ADME, organism-based; details: in vivo, 1 h
Heart [7] = assay: Biodistribution in Kunming mouse heart at 2 uCi, iv after 30 mins; format: ADME, organism-based; details: in vivo, 0.5 h
Blood [8] = assay: Biodistribution in Kunming mouse blood at 2 uCi, iv after 60 mins; format: ADME, organism-based; details: in vivo, 1 h
Liver [9] = assay: Biodistribution in Kunming mouse liver at 2 uCi, iv after 60 mins; format: ADME, organism-based; details: in vivo, 1 h
Blood [10] = assay: Biodistribution in Kunming mouse blood at 2 uCi, iv after 30 mins; format: ADME, organism-based; details: in vivo, 0.5 h
Kidney [11] = assay: Biodistribution in Kunming mouse kidney at 2 uCi, iv after 10 mins; format: ADME, organism-based; details: in vivo
Heart [12] = assay: Biodistribution in Kunming mouse heart at 2 uCi, iv after 10 mins; format: ADME, organism-based; details: in vivo
Lung [13] = assay: Biodistribution in Kunming mouse lung at 2 uCi, iv after 2 mins; format: ADME, organism-based; details: in vivo
Heart [14] = assay: Biodistribution in Kunming mouse heart at 2 uCi, iv after 2 mins; format: ADME, organism-based; details: in vivo
Kidney [15] = assay: Biodistribution in Kunming mouse kidney at 2 uCi, iv after 2 mins; format: ADME, organism-based; details: in vivo
Brain [16] = assay: Biodistribution in Kunming mouse brain at 2 uCi, iv after 30 mins; format: ADME, organism-based; details: in vivo, 0.5 h
Kidney [17] = assay: Biodistribution in Kunming mouse kidney at 2 uCi, iv after 30 mins; format: ADME, organism-based; details: in vivo, 0.5 h
Kidney [18] = assay: Biodistribution in Kunming mouse kidney at 2 uCi, iv after 60 mins; format: ADME, organism-based; details: in vivo, 1 h
Brain [19] = assay: Biodistribution in Kunming mouse brain at 2 uCi, iv after 60 mins; format: ADME, organism-based; details: in vivo, 1 h
Spleen [20] = assay: Biodistribution in Kunming mouse spleen at 2 uCi, iv after 2 mins; format: ADME, organism-based; details: in vivo
Brain [21] = assay: Biodistribution in Kunming mouse brain at 2 uCi, iv after 10 mins; format: ADME, organism-based; details: in vivo
Blood [22] = assay: Biodistribution in Kunming mouse blood at 2 uCi, iv after 10 mins; format: ADME, organism-based; details: in vivo
[23] = Partition coefficient, log P at pH 7.4 phosphate buffer; format: physicochemical
Brain [24] = assay: Biodistribution in Kunming mouse brain at 2 uCi, iv after 2 mins; format: ADME, organism-based; details: in vivo
Liver [25] = assay: Biodistribution in Kunming mouse liver at 2 uCi, iv after 2 mins; format: ADME, organism-based; details: in vivo
Heart [26] = assay: Biodistribution in Kunming mouse heart at 2 uCi, iv after 60 mins; format: ADME, organism-based; details: in vivo, 1 h
Lung [27] = assay: Biodistribution in Kunming mouse lung at 2 uCi, iv after 10 mins; format: ADME, organism-based; details: in vivo
Lung [28] = assay: Biodistribution in Kunming mouse lung at 2 uCi, iv after 30 mins; format: ADME, organism-based; details: in vivo, 0.5 h
Spleen [29] = assay: Biodistribution in Kunming mouse spleen at 2 uCi, iv after 60 mins; format: ADME, organism-based; details: in vivo, 1 h
Spleen [30] = assay: Biodistribution in Kunming mouse spleen at 2 uCi, iv after 10 mins; format: ADME, organism-based; details: in vivo
Liver [31] = assay: Biodistribution in Kunming mouse liver at 2 uCi, iv after 10 mins; format: ADME, organism-based; details: in vivo
Liver [32] = assay: Biodistribution in Kunming mouse liver at 2 uCi, iv after 30 mins; format: ADME, organism-based; details: in vivo, 0.5 h

Ki [2]: 16.3 nM
Compound: COc1ccc(Nc2ccc3c(c2)C(=O)N(C)C3=O)cc1

Activity [3]: Active
Ki [2]: 4.1 nM
Compound: Cc1ccc(Nc2ccc3c(c2)C(=O)N(C)C3=O)cc1

Ki [1]: 2.7 nM
Compound: CC(=C(C#N)C#N)c1ccc2cc(N(C)CC[18F])ccc2c1

Ki [1]: 4.3 nM
Compound: [11CH3]Nc1ccc(-c2nc3ccc(O)cc3s2)cc1 [PITTSBURGH COMPOUND B]

Activity [3]: Active
Ki [2]: 0.9 nM
Compound: CN1C(=O)c2ccc(Nc3ccc(I)cc3)cc2C1=O

Continued, compound first:

Compound: O=C1NC(=O)c2cc(Nc3ccccc3)c(Nc3ccccc3)cc21 [DAPH]
Ki [2]: > 1000 nM

Compound: CN1C(=O)c2ccc(Nc3ccc(Br)cc3)cc2C1=O
Activity [3]: Active
Ki [2]: 3.8 nM

Compound: CN1C(=O)c2ccc(Nc3ccc(O)cc3)cc2C1=O
Ki [2]: 19.7 nM

Compound: CN1C(=O)c2cc(Nc3ccccc3)c(Nc3ccccc3)cc2C1=O
Ki [2]: > 1000 nM

Compound: CN1C(=O)c2ccc(Nc3ccc([125I])cc3)cc2C1=O
Drug uptake (Spleen [4]): 3.7 % ID/g
Drug uptake (Blood [5]): 2.47 % ID/g
Drug uptake (Lung [6]): 2.82 % ID/g
Drug uptake (Heart [7]): 2.83 % ID/g
Drug uptake (Blood [8]): 2.78 % ID/g
Drug uptake (Liver [9]): 3.37 % ID/g
Drug uptake (Blood [10]): 2.69 % ID/g
Drug uptake (Kidney [11]): 6.55 % ID/g
Drug uptake (Heart [12]): 3.41 % ID/g
Drug uptake (Lung [13]): 6.77 % ID/g
Drug uptake (Heart [14]): 7.4 % ID/g
Drug uptake (Kidney [15]): 9.81 % ID/g
Drug uptake (Brain [16]): 1.16 % ID/g
Drug uptake (Kidney [17]): 3.59 % ID/g
Drug uptake (Kidney [18]): 2.68 % ID/g
Drug uptake (Brain [19]): 0.59 % ID/g
Drug uptake (Spleen [20]): 5.64 % ID/g
Drug uptake (Brain [21]): 3.41 % ID/g
Drug uptake (Blood [22]): 2.74 % ID/g
logD [23]: 2.16
Drug uptake (Brain [24]): 5.16 % ID/g
Kd [2]: 0.21 nM
Drug uptake (Liver [25]): 11.98 % ID/g
Drug uptake (Heart [26]): 2.24 % ID/g
Drug uptake (Lung [27]): 6.35 % ID/g
Drug uptake (Lung [28]): 3.47 % ID/g
Drug uptake (Spleen [29]): 2.92 % ID/g
Drug uptake (Spleen [30]): 6.87 % ID/g
Drug uptake (Liver [31]): 14.38 % ID/g
Drug uptake (Liver [32]): 5.84 % ID/g

Compound: COc1ccc2cc([C@H](C)C(=O)O)ccc2c1 [NAPROXEN]
Ki [1]: 5.7 nM

Compound: CN1C(=O)c2ccc(Nc3ccccc3)cc2C1=O
Ki [2]: 7.6 nM

Compound: Nc1c(/N=N/c2ccc(-c3ccc(/N=N/c4cc(S(=O)(=O)O)c5ccccc5c4N)cc3)cc2)cc(S(=O)(=O)O)c2ccccc12 [CONGO RED]
Ki [2]: > 1000 nM
